{
  "source": "the SangsterLogP compilation",
  "key": {"[1]": {"test": "not given", "remark": "listed apart in the source"}, "[2]": {"test": "not given", "remark": "listed apart in the source"}, "[3]": {"test": "method code SF-GLC, from DOI: 10.1897/1552-8618(1989)8[499:dowpcf]2.0.co;2"}, "[4]": {"test": "not given", "remark": "listed apart in the source"}, "[5]": {"test": "not given", "remark": "listed apart in the source"}, "[6]": {"test": "method code SF, from ISBN: 9780815518525", "conditions": "pH 7.0"}, "[7]": {"test": "method code SF-AS, from DOI: 10.2307/3574491, PMID: 940937", "conditions": "pH 7.4"}, "[8]": {"test": "not given", "remark": "listed apart in the source"}, "[9]": {"test": "not given", "remark": "listed apart in the source"}, "[10]": {"test": "method code SF, from ISBN: 9780444415486"}, "[11]": {"test": "method code SF-AS, from DOI: 10.1023/a:1021720128725"}, "[12]": {"test": "not given", "remark": "listed apart in the source"}, "[13]": {"test": "method code SF-HPLC, from DOI: 10.1021/js980008v, PMID: 9758683"}, "[14]": {"test": "not given", "remark": "listed apart in the source"}, "[15]": {"test": "method code SF, from ISBN: 9780948404450"}, "[16]": {"test": "method code SF-HPLC, from DOI: 10.13422/j.cnki.syfjx.2013.03.051"}, "[17]": {"conditions": "pH 6.0"}},
  "data": [
    {"smiles": "Cc1ccccc1/C=C/[N+](=O)[O-]", "values": [
      {"measurement": "logP", "value": 2.63}
    ]},
    {"smiles": "Cc1ccccc1C(=N)c1ccccc1C", "values": [
      {"measurement": "logP", "setting": "[1]", "value": 3.31}
    ]},
    {"smiles": "CSc1nc(NC(C)C)nc(NC(C)C)n1", "values": [
      {"measurement": "logP", "setting": "[2]", "value": 3.36}
    ]},
    {"smiles": "CCc1ccc2c(c1)C(=O)c1ccccc1C2=O", "values": [
      {"measurement": "logP", "setting": "[3]", "value": 4.37}
    ]},
    {"smiles": "O=C(O)c1c(O)cccc1O", "values": [
      {"measurement": "logP", "setting": "[4]", "value": 1.23}
    ]},
    {"smiles": "Clc1cc(Cl)c(Cl)cc1Cl", "values": [
      {"measurement": "logP", "setting": "[3]", "value": 4.6}
    ]},
    {"smiles": "Oc1ccccc1", "values": [
      {"measurement": "logP", "setting": "[5]", "value": 1.6}
    ]},
    {"smiles": "CNC(=O)N(C)c1nnc(C(C)(C)C)s1", "values": [
      {"measurement": "logD", "setting": "[6]", "value": 1.79}
    ]},
    {"smiles": "COC(=O)CCn1c(C)cnc1[N+](=O)[O-]", "values": [
      {"measurement": "logD", "setting": "[7]", "value": -0.25}
    ]},
    {"smiles": "O=C(O)c1ccccc1C(=O)Nc1cccc2ccccc12", "values": [
      {"measurement": "logP", "setting": "[8]", "value": 3}
    ]},
    {"smiles": "CCS(=O)CCSP(=O)(OC)OC", "note": "(stereo not given)", "values": [
      {"measurement": "logP", "setting": "[9]", "value": -0.74}
    ]},
    {"smiles": "CN1C(=O)OC(c2ccccc2)C1=O", "note": "(stereo not given)", "values": [
      {"measurement": "logP", "setting": "[10]", "value": 1.06}
    ]},
    {"smiles": "O=[N+]([O-])c1nccn1CC(O)CO", "note": "(stereo not given)", "values": [
      {"measurement": "logD", "setting": "[7]", "value": -0.96}
    ]},
    {"smiles": "Nc1nc2c(ncn2COCCO)c(=O)[nH]1", "values": [
      {"measurement": "logP", "setting": "[11]", "value": -1.44}
    ]},
    {"smiles": "OCCOCCOCCOCCO", "values": [
      {"measurement": "logP", "setting": "[12]", "value": -1.38}
    ]},
    {"smiles": "c1ccc(Oc2cccc(-c3ccccc3)c2)cc1", "values": [
      {"measurement": "logP", "setting": "[12]", "value": 5.55}
    ]},
    {"smiles": "N#Cc1cc(Br)c(O)c(Br)c1", "values": [
      {"measurement": "logP", "setting": "[8]", "value": 2.7}
    ]},
    {"smiles": "CCCC(=O)OCN1C(=O)NC(c2ccccc2)(c2ccccc2)C1=O", "values": [
      {"measurement": "logP", "setting": "[13]", "value": 3.9}
    ]},
    {"smiles": "O=C1NC(c2ccccc2)(c2ccccc2)C(=O)N1CO", "values": [
      {"measurement": "logP", "setting": "[13]", "value": 2.23}
    ]},
    {"smiles": "CC(=O)Nc1cc(C(C)(C)C)c(O)cc1C", "values": [
      {"measurement": "logP", "setting": "[1]", "value": 2.18}
    ]},
    {"smiles": "Nc1ccccc1", "values": [
      {"measurement": "logP", "setting": "[14]", "value": 1.08}
    ]},
    {"smiles": "OCCN(CCO)CCO", "values": [
      {"measurement": "logP", "setting": "[12]", "value": -1.32}
    ]},
    {"smiles": "CCS(=O)c1sc(C#N)c(Cl)c1C#N", "note": "(stereo not given)", "values": [
      {"measurement": "logP", "setting": "[15]", "value": 2.54}
    ]},
    {"smiles": "Cc1cn2c(=O)c3c(nc2[nH]1)N(COCCO)C(Br)N3", "note": "(stereo not given)", "values": [
      {"measurement": "logP", "setting": "[11]", "value": -0.11}
    ]},
    {"smiles": "O=C1C=CC[C@@H]2[C@H]3CCC[N+]4([O-])CCC[C@@H](CN12)[C@@H]34", "note": "(stereo not given in full)", "values": [
      {"measurement": "logP", "setting": "[16]", "value": -0.44}
    ]},
    {"smiles": "CC(=O)[C@H]1CC[C@H]2[C@@H]3CCC4=CC(=O)CC[C@]4(C)[C@H]3CC[C@]12C", "values": [
      {"measurement": "logD", "setting": "[17]", "value": 3.7}
    ]},
    {"smiles": "CCCCNCCCC", "values": [
      {"measurement": "logP", "setting": "[12]", "value": 2.68}
    ]},
    {"smiles": "CC(C)(C)c1cn2c(=O)c3ncn(COCCO)c3nc2[nH]1", "values": [
      {"measurement": "logP", "setting": "[11]", "value": 0.62}
    ]},
    {"smiles": "CC(=O)OCN1C(=O)NC(c2ccccc2)(c2ccccc2)C1=O", "values": [
      {"measurement": "logP", "setting": "[13]", "value": 2.8}
    ]},
    {"smiles": "O=C1NC(=O)C(c2ccccc2)(c2ccccc2)N1", "values": [
      {"measurement": "logP", "setting": "[13]", "value": 2.21}
    ]}
  ]
}
